Experimental data reported in patent US20210070747A1, “2(1H)-QUINOLINONE DERIVATIVE” (priority 2017, published 2021).
pIC50: −log10 of the molar value. Converted amounts (≈) assume the structure as drawn. Counter-ions that a name gives are not always drawn. Like-named read-outs stand apart in the source and are kept apart here.

Legend:
E. Coli ATCC 25922 = test: Test for evaluating antibacterial activity (E. coli), broth microdilution MIC; format: cell-based; details: Escherichia coli, ATCC25922; 35° C., 18 hours, cation-adjusted Mueller-Hinton medium
In short: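 Broth microdilution per modified CLSI method in cation-adjusted Mueller-Hinton medium. Inoculum from overnight heart infusion agar growth, McFarland 0.5 suspension diluted 10-fold; incubation 35° C for 18 hours. MIC taken as lowest drug concentration with no visible growth.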

E. coli DNA gyrase = target: T1, E. coli DNA gyrase (Escherichia coli, UniProt P0AES6); test: Test for evaluating the activity of inhibiting E. coli DNA gyrase enzyme (Method 1, supercoiling, Inspiralis enzyme); format: biochemical
T1 construct: made in house; host or cells: E. coli BL21 (DE3)
Method: Test Example 1-1 Test for Evaluating the Activity of Inhibiting E. coli DNA Gyrase Enzyme (Method 1)
The enzymatic activity of E. coli DNA gyrase was measured by a method comprising reacting DNA gyrase and its substrate, relaxed pBR322 (Inspiralis), in the presence of ATP and detecting the post-reaction supercoiled pBR322/relaxed pBR322 ratio with H19 (Profoldin).
Specifically, to 1 ng/μL of relaxed pBR322, E. coli DNA gyrase enzyme (Inspiralis) was added at a final concentration of 0.006 U/μL and the mixture was incubated for 60 minutes at room temperature. This reaction was carried out in 20 mmol/L tris-HCl buffered solution (pH 8.0) comprising 0.5 mmol/L ATP, 0.005% bridge 35, 35 mmol/L ammonium acetate, 8 mmol/L magnesium chloride, 4.6% glycerol, and 1 mmol/L dithiothreitol. To the reaction mixture, H19 was added to bring the reaction to an end; thereafter, the supercoiled pBR322/relaxed pBR322 ratio was detected at excitation wavelength/emission wavelength=485 nm/535 nm. An inhibition curve was obtained by allowing the analyte compound to be present at varying concentrations during the reaction described above. […] The test results of interest are shown in [Table 20-1] and [Table 20-2].

[1] = system: N. gonorrhoeae ATCC 49226; test: Test for evaluating antibacterial activity (N. gonorrhoeae), broth microdilution MIC; format: cell-based; details: Neisseria gonorrhoeae, ATCC49226; 35° C., 24 hours, gonococcal broth
In short: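 Broth microdilution in gonococcal broth with 1% supplement C, inoculum from overnight chocolate II agar culture at McFarland 0.5 diluted 5-fold.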

[2] = Method 1, read-out: E. Coli Gyrase supercoiling IC50

Compound	MIC (E. Coli ATCC 25922)	pIC50 (E. coli DNA gyrase; [2])	MIC [1]	pIC50 (E. coli DNA gyrase)
CNc1cccc2cc(C(=O)NC3CCN(c4ncc(C(=O)O)s4)CC3)c(=O)[nH]c12 [Example 3, 2-(4-{[8-(methylamino)-2-oxo-1,2-dihydroquinoline-3-carbonyl]amino}piperidine-1-yl)-1,3-thiazole-5-carboxylic acid]	> 64 µg/mL	6.91	> 4 µg/mL	
CNc1cccc2cc(C(=O)Nc3ccccc3CN(C)C3CCCCC3)c(=O)[nH]c12 [Example 7, N-(2-[[Cyclohexyl(methyl)amino]methyl]phenyl)-8-(methylamino)-2-oxo-1,2-dihydroquinoline-3-carboxamide]	> 32 µg/mL	8.47	> 4 µg/mL	
CNc1cccc2cc(C(=O)NCc3ccc(C(=O)O)cc3C)c(=O)[nH]c12 [Example 8, 3-methyl-4-({[8-(methylamino)-2-oxo-1,2-dihydroquinoline-3-carbonyl]amino}methyl)benzoic acid]	> 64 µg/mL	7.52	4 µg/mL (≈ 10.9 µM)	
CNc1cccc2cc(C(=O)NCc3noc(=O)[nH]3)c(=O)[nH]c12 [Example 14, 8-(methylamino)-2-oxo-N-[(5-oxo-4,5-dihydro-1,2,4-oxadiazole-3-yl)methyl]-1,2-dihydroquinoline-3-carboxamide]		4.45	> 4 µg/mL	
CNc1cccc2cc(C(=O)Nc3cccc(=O)[nH]3)c(=O)[nH]c12 [Example 16, 8-(methylamino)-2-oxo-N-(6-oxo-1,6-dihydro-pyridine-2-yl)-1,2-dihydroquinoline-3-carboxamide]	> 64 µg/mL	6.88	> 4 µg/mL	
CNc1nccc2cc(C(=O)Nc3ccc(C(=O)O)cc3)c(=O)[nH]c12 [Example 17, 4-[[8-(Methylamino)-2-oxo-1,2-dihydro-1,7-naphthyridine-3-carbonyl]amino]benzoic Acid]	> 64 µg/mL	6.53	> 1 µg/mL	
CNc1cccc2cc(C(=O)Nc3ccc(-c4noc(=O)[nH]4)cc3)c(=O)[nH]c12 [Example 18, 8-(methylamino)-2-oxo-N-[4-(5-oxo-4,5-dihydro-1,2,4-oxadiazole-3-yl)phenyl]-1,2-dihydroquinoline-3-carboxamide]	> 0.5 µg/mL	7.81	0.25 µg/mL (≈ 0.662 µM)	
CNc1cccc2cc(C(=O)OCc3ccncc3N)c(=O)[nH]c12 [Example 19, (3-aminopyridine-4-yl)methyl 8-(methyl-amino)-2-oxo-1,2-dihydroquinoline-3-carboxylate]	> 16 µg/mL	6.37	> 4 µg/mL	
CN=S(C)(=O)c1ccc(NC(=O)c2cc3cccc(NC)c3[nH]c2=O)cc1 (stereo not drawn) [Example 22, N-[4-(N,S-dimethane-sulfonimidoyl)phenyl]-8-(methylamino)-2-oxo-1,2-dihydroquinoline-3-carboxamide]	> 8 µg/mL	6.76	> 4 µg/mL	
CNc1cccc2cc(C(=O)Nc3cnc(N4CCN(C)CC4)nc3)c(=O)[nH]c12 [Example 28, 8-(methylamino)-N-[2-(4 methylpiperazine-1-yl)pyrimidine-5-yl]-2-oxo-1,2-dihydroquinoline-3-carboxamide]	> 16 µg/mL	7.49	> 4 µg/mL	
CNc1cccc2cc(C(=O)NCCc3cn4cccnc4n3)c(=O)[nH]c12 [Example 29, N-[2-(imidazo [1,2-a]pyrimidine-2-yl)ethyl]-8-(methylamino)-2-oxo-1,2-dihydroquinoline-3-carboxamide]	> 64 µg/mL	7.55	> 4 µg/mL	
CNc1cc(F)cc2cc(C(=O)Nc3cncnc3)c(=O)[nH]c12 [Example 50, 6-fluoro-8-(methylamino)-2-oxo-N-(pyrimidine-5-yl)-1,2-dihydroquinoline-3-carboxamide]	> 8 µg/mL	8.73	0.06 µg/mL (≈ 0.192 µM)	
CNc1cc(F)cc2cc(C(=O)Nc3ccc(C(=O)O)c(OCCN4CCN(C)CC4)c3)c(=O)[nH]c12 [Example 54, 4-{[6-fluoro-8-(methylamino)-2-oxo-1,2-dihydroquinoline-3-carbonyl]amino}-2-[2-(4-methylpiperazine-1-yl)ethoxy] benzoic acid-hydrochloride]	> 16 µg/mL	8.72	1 µg/mL	
CNc1cc(F)cc2cc(C(=O)N(C)c3ccc(C(=O)O)cc3)c(=O)[nH]c12 [Example 56, 4-{[6-fluoro-8-(methylamino)-2-oxo-1,2-dihydroquinoline-3-carbonyl] (melhyl)amino} benzoic acid]	> 64 µg/mL		0.12 µg/mL (≈ 0.325 µM)	7.74
CNc1cc(F)cc2cc(C(=O)Nc3ccc(C(=O)O)c(O)c3)c(=O)[nH]c12 [Example 58, 4-{[6-fluoro-8-(methylamino)-2-oxo-1,2-dihydroquinoline-3-carbonyl]amino}-2-hydroxybenzoic acid]	> 32 µg/mL	8.69	0.12 µg/mL (≈ 0.323 µM)	
CNc1cc(F)cc2cc(C(=O)Nc3ccc(C(=O)O)c(OCCCN)c3)c(=O)[nH]c12.O=CO [Example 62, 2-(3-Aminopropoxy)-4-[[6-fluoro-8-(methylamino)-2-oxo-1,2-dihydroquinoline-3-carbonyl]amino]benzoic acid-formate]	> 16 µg/mL		2 µg/mL	9.04
CNc1cc(F)cc2cc(C(=O)NCCc3cccc(C(=O)O)c3)c(=O)[nH]c12 [Example 66, 3-(2-{[6-fluoro-8-(methylamino)-2-oxo-1,2-dihydroquinoline-3-carbonyl]amino}ethyl) benzoic acid]	> 32 µg/mL	9.02	0.25 µg/mL (≈ 0.652 µM)	
CNc1cc(F)cc2cc(C(=O)Nc3cnc(C(=O)NCCO)nc3)c(=O)[nH]c12 [Example 71, 6-Fluoro-N-[2-[(2-hydroxyethyl)carbamoyl]pyrimidin-5-yl]-8-(methylamino)-2-oxo-1,2-dihydroquinoline-3-carboxamide]	> 8 µg/mL	9.06		
CNc1cc(F)cc2cc(C(=O)Nc3cnccc3C)c(=O)[nH]c12 [Example 73, 6-fluoro-8-(methylamino)-N-(4-methylpyridine-3-yl)-2-oxo-1,2-dihydroquinoline-3-carboxamide]	> 8 µg/mL	7.64		
CNc1cc(F)cc2cc(C(=O)Nc3ccc(C(=O)O)cc3CNCCO)c(=O)[nH]c12 [Example 74, 4-{[6-fluoro-8-(methylamino)-2-oxo-1,2-dihydroquinoline-3-catbonyl]amino}-3-{[(2-hydroxyethyl)amino]methyl} benzoic acid-hydrochloride]	> 64 µg/mL	6.89		
CNc1cc(F)cc2cc(C(=O)Nc3ccc(C(=O)NCCN4CCOCC4)cc3CN(C)C3CCCCC3)c(=O)[nH]c12 [Example 75, N-(2-{[cyclohexyl(methyl)amino]methyl}-4-{[2-(morpholine-4-yl)ethyl]carbamoyl}phenyl)-6-fluoro-8-(methylamino)-2-oxo-1,2-dihydroquinoline-3-carboxamide]	8 µg/mL (≈ 13.5 µM)	9.60		
CNc1cc(F)cc2cc(C(=O)Nc3cnc(OCCN4CCOCC4)nc3)c(=O)[nH]c12 [Example 80, 6-fluoro-8-(methylamino)-N-{2-[2-(morpholine-4-yl)ethoxy]pyrimidine-5-yl}-2-oxo-1,2-dihydroquinoline-3-carboxamide]	> 16 µg/mL	8.60		
